# Reference: patent US20240041814A1, “USE OF REAGENT FOR DETECTING RETINOL METABOLITE IN PREPARATION OF TOOL FOR DIAGNOSING AND/OR TREATING PNEUMOCONIOSIS” (Institute of Basic Medical Sciences of Chinese Academy of …, priority 2022, published 2024)
# Experiments:
# mice with pneumoconiosis [1] = assay: Pathological staining of lung (HE, Szapiel score; Masson, Aschroft score); assay type: in vivo, mouse; conditions: 10 mg/kg ATRA intragastrically 3 times a week for 4 weeks
# Procedure: Male C57BL/6J mice (aged 8-10 weeks and weighing 25-30 g) were selected and housed in an SPF grade laboratory animal room, and the model of pneumoconiosis was constructed by one-time intratracheal instillation of silica (Si); the mice were divided into four groups (n=9): (1) PBS+vehicle group: 40 μL of sterile phosphate-buffered saline (PBS) was administered by intratracheal instillation; two weeks later, corn oil was administered intragastrically 3 times a week, for 4 weeks; (2) PBS+ATRA group: 40 μL of sterile PBS was administered by intratracheal instillation; two weeks later, 10 mg/kg ATRA was administered intragastrically 3 times a week, for 4 weeks; (3) Si+vehicle group: a silica suspension (300 mg/mL, 40 μL) was administered by intratracheal instillation; two weeks later, corn oil was administered intragastrically 3 times a week, for 4 weeks; (4) Si+ATRA group: a silica suspension (300 mg/mL, 40 μL) was administered by intratracheal instillation; two weeks later, 10 mg/kg ATRA was administered intragastrically 3 times a week, for 4 weeks. All mice were sacrificed after 6 weeks, and the corresponding samples were collected for detection. […] For HE staining, inflammation was scored based on Szapiel scores; for Masson staining, the severity of fibrosis was scored by Aschroft scores. The sections were scanned, photographed and counted by a 3D HISTECH digital slide scanner.
# mice with pneumoconiosis [2] = assay: Cardiopulmonary function test (RVSP, lung function IC and Cst); assay type: in vivo, mouse; conditions: ATRA-treated mice with pneumoconiosis compared with control mice, 10 mg/kg intragastrically 3 times a week for 4 weeks
# Procedure: Male C57BL/6J mice (aged 8-10 weeks and weighing 25-30 g) were selected and housed in an SPF grade laboratory animal room, and the model of pneumoconiosis was constructed by one-time intratracheal instillation of silica (Si); the mice were divided into four groups (n=9): (1) PBS+vehicle group: 40 μL of sterile phosphate-buffered saline (PBS) was administered by intratracheal instillation; two weeks later, corn oil was administered intragastrically 3 times a week, for 4 weeks; (2) PBS+ATRA group: 40 μL of sterile PBS was administered by intratracheal instillation; two weeks later, 10 mg/kg ATRA was administered intragastrically 3 times a week, for 4 weeks; (3) Si+vehicle group: a silica suspension (300 mg/mL, 40 μL) was administered by intratracheal instillation; two weeks later, corn oil was administered intragastrically 3 times a week, for 4 weeks; (4) Si+ATRA group: a silica suspension (300 mg/mL, 40 μL) was administered by intratracheal instillation; two weeks later, 10 mg/kg ATRA was administered intragastrically 3 times a week, for 4 weeks. All mice were sacrificed after 6 weeks, and the corresponding samples were collected for detection. An anesthetized mouse was fixed on an experimental bench, and an 8 gauge needle connected with a high-fidelity pressure sensor was inserted into the right ventricle to directly measure the invasive right ventricular systolic pressure (RVSP). The RVSP was recorded and analyzed by a Power Lab data acquisition and analysis system (PL 3504, AD Instruments, Australia). Mouse lung function was detected by a pulmonary function testing system (DSI Buxco, USA). Before experiment, the mouse was anesthetized by intraperitoneal injection of 0.4 mL/100 g 2% pentobarbital, tracheotomy was performed, a trachea cannula was inserted, and a ventilator was connected. […] A statistical analysis was conducted on indexes closely related to lung function changes of pneumoconiosis, including inspiratory capacity (IC) and quasi-static compliance (Cst).
# FN-1 and Col-I = assay: Western blot and qPCR of fibrosis factors in mouse lung tissue; assay type: in vivo; conditions: mice with pneumoconiosis, 10 mg/kg ATRA intragastrically 3 times a week for 4 weeks
# Procedure: Male C57BL/6J mice (aged 8-10 weeks and weighing 25-30 g) were selected and housed in an SPF grade laboratory animal room, and the model of pneumoconiosis was constructed by one-time intratracheal instillation of silica (Si); the mice were divided into four groups (n=9): (1) PBS+vehicle group: 40 μL of sterile phosphate-buffered saline (PBS) was administered by intratracheal instillation; two weeks later, corn oil was administered intragastrically 3 times a week, for 4 weeks; (2) PBS+ATRA group: 40 μL of sterile PBS was administered by intratracheal instillation; two weeks later, 10 mg/kg ATRA was administered intragastrically 3 times a week, for 4 weeks; (3) Si+vehicle group: a silica suspension (300 mg/mL, 40 μL) was administered by intratracheal instillation; two weeks later, corn oil was administered intragastrically 3 times a week, for 4 weeks; (4) Si+ATRA group: a silica suspension (300 mg/mL, 40 μL) was administered by intratracheal instillation; two weeks later, 10 mg/kg ATRA was administered intragastrically 3 times a week, for 4 weeks. All mice were sacrificed after 6 weeks, and the corresponding samples were collected for detection. Lung tissue proteins of all mice were extracted. […]
# IL-1β and IL-6 = assay: ELISA of inflammatory factors in mouse BALF; assay type: in vivo; conditions: mice with pneumoconiosis, 10 mg/kg ATRA intragastrically 3 times a week for 4 weeks
# Procedure: Male C57BL/6J mice (aged 8-10 weeks and weighing 25-30 g) were selected and housed in an SPF grade laboratory animal room, and the model of pneumoconiosis was constructed by one-time intratracheal instillation of silica (Si); the mice were divided into four groups (n=9): (1) PBS+vehicle group: 40 μL of sterile phosphate-buffered saline (PBS) was administered by intratracheal instillation; two weeks later, corn oil was administered intragastrically 3 times a week, for 4 weeks; (2) PBS+ATRA group: 40 μL of sterile PBS was administered by intratracheal instillation; two weeks later, 10 mg/kg ATRA was administered intragastrically 3 times a week, for 4 weeks; (3) Si+vehicle group: a silica suspension (300 mg/mL, 40 μL) was administered by intratracheal instillation; two weeks later, corn oil was administered intragastrically 3 times a week, for 4 weeks; (4) Si+ATRA group: a silica suspension (300 mg/mL, 40 μL) was administered by intratracheal instillation; two weeks later, 10 mg/kg ATRA was administered intragastrically 3 times a week, for 4 weeks. All mice were sacrificed after 6 weeks, and the corresponding samples were collected for detection.
# Concentrations of inflammatory factors IL-1β and IL-6 in mouse BALF were detected by using ELISA kits.
# mice with pneumoconiosis [3] = assay: Mouse model of pneumoconiosis (intratracheal silica) with ATRA treatment, overall outcome; assay type: in vivo; conditions: 10 mg/kg ATRA intragastrically 3 times a week for 4 weeks
structure (smiles),measurement,setting,value
"CC1=C(/C=C/C(C)=C/C=C/C(C)=C/C(=O)O)C(C)(C)CCC1 [ATRA, All-trans retinoic acid]",severity of fibrosis (Masson staining),mice with pneumoconiosis [1],reduce the severity
same,severity of inflammation (HE staining),mice with pneumoconiosis [1],reduce the severity
same,inspiratory capacity (IC),mice with pneumoconiosis [2],improved to a certain extent
same,quasi-static compliance (Cst),mice with pneumoconiosis [2],improved to a certain extent
same,right ventricular systolic pressure (RVSP),mice with pneumoconiosis [2],lowered to a certain extent
same,level of fibrosis factor Col-I in lung tissue (transcriptional),FN-1 and Col-I,reduced levels
same,level of fibrosis factor FN-1 in lung tissue (translational and transcriptional),FN-1 and Col-I,reduced levels
same,concentration of IL-1β in BALF,IL-1β and IL-6,lowered concentrations
same,concentration of IL-6 in BALF,IL-1β and IL-6,lowered concentrations
same,"cardiopulmonary function, inflammation, and fibrosis",mice with pneumoconiosis [3],significantly improve
